Source: the supplement of paper PMC11208160

Assay: recombinant barcode read abundance after kanamycin selection (control-corrected) (log10(CPM+1)); higher = more efficient recombination; sequences stand for … in AGTGCAGAGAAAATCGGCCAGTTTTCTCTGCCTGCAGTCCGCATGCCGT…AGATTTATGCAGCGGACTGCCTTTCTCCCAAAGTGATAAACCGGACAGTATCATGGACCGGTTTTCCCGGTAATCCGTATTTGCAAGGTTGGTTTCACT; site = the 11-nt target
Method in brief: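 For this pooled screen, each oligo contained a promoter, a target, a barcode and the J23119-driven first 104 bases of the bridge RNA. Gibson cloning placed it into a vector supplying the remaining 73 bp and a T7-inducible recombinase, and the pool was co-electroporated into E. coli with a donor plasmid. Recombination efficiency is derived from barcode counts per million at recombinant junctions after averaging and control correction, and is expressed on a log scale as log10(CPM+1), with selection on chloramphenicol/ampicillin/kanamycin plus 0.1 mM IPTG against a chloramphenicol/ampicillin LB agar control.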
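Also: IS621 recombinase and bridge RNA in Escherichia coli cells.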

Sequence	recombinant barcode read abundance (log10)
TCGGAGTCTTGGGTTCTAACCTGTTGCGT (site TCGGAGTCTAC)	2.55
TCGGAGTCTTGGGTTCTAACCTGTTGCGT (site TCGGAGTCTAG)	0.969
TCGGAGTCTTGGGTTCTAACCTGTTGCGT (site TCGGAGTCTAT)	2.39
TCGGATACTTGGGTTCTAACCTGTTGCAT (site TCGGATACTAA)	0.31
TCGGATACTTGGGTTCTAACCTGTTGCAT (site TCGGATACTAC)	0.0629
TCGGATACTTGGGTTCTAACCTGTTGCAT (site TCGGATACTAG)	0.173
TCGGATACTTGGGTTCTAACCTGTTGCAT (site TCGGATACTAT)	1.57
TCGGATACTTGGGTTCTAACCTGTTGCCT (site TCGGATACTAA)	0.119
TCGGATACTTGGGTTCTAACCTGTTGCCT (site TCGGATACTAC)	0.0175
TCGGATACTTGGGTTCTAACCTGTTGCCT (site TCGGATACTAG)	1.54
TCGGATACTTGGGTTCTAACCTGTTGCCT (site TCGGATACTAT)	0.0399
TCGGATACTTGGGTTCTAACCTGTTGCGT (site TCGGATACTAA)	0.0447
TCGGATACTTGGGTTCTAACCTGTTGCGT (site TCGGATACTAC)	2.05
TCGGATACTTGGGTTCTAACCTGTTGCGT (site TCGGATACTAG)	0.265
TCGGATACTTGGGTTCTAACCTGTTGCGT (site TCGGATACTAT)	1.41
TCGGATGCTTGGGTTCTAACCTGTTGCTT (site TCGAATGCTAG)	0.349
TCGGATGCTTGGGTTCTAACCTGTTGCTT (site TCGGATGCTAA)	0.901
TCGGGGACTTGGGTTCTAACCTGTTGCCG (site TCAGGGACTCT)	0.183
TCGGGGACTTGGGTTCTAACCTGTTGCCG (site TCGGGGACTCG)	0.601
TCGTACCCTTGGGTTCTAACCTGTTGCAA (site AAAATATCTAG)	0.083
TCGTACCCTTGGGTTCTAACCTGTTGCAA (site TCGTACCCTTT)	0.143
TCGTCTACTTGGGTTCTAACCTGTTGCTC (site ATCAACCCTTG)	0.117

Sequence	recombinant barcode read abundance (log10)
TCGTCTACTTGGGTTCTAACCTGTTGCTC (site TCGTCTACTGA)	0.26
TCGTGCCCTTGGGTTCTAACCTGTTGCGT (site CCGTGCCCTAC)	0.0929
TCGTGCCCTTGGGTTCTAACCTGTTGCGT (site TCGTGCCCTAC)	0.14
TCGTTTCCTTGGGTTCTAACCTGTTGCAT (site AGCCAGGCTCC)	0.0113
TCGTTTCCTTGGGTTCTAACCTGTTGCAT (site TCGTTTCCTAT)	0.0275
TCTAAACCTTGGGTTCTAACCTGTTGCCT (site TCTAAACCTAG)	0.205
TCTAAACCTTGGGTTCTAACCTGTTGCCT (site TCTCAACCTAG)	0.0726
TCTAACACTTGGGTTCTAACCTGTTGCCT (site ACTAACACTAG)	0.0882
TCTAACACTTGGGTTCTAACCTGTTGCCT (site CCTAACACTAG)	0.0793
TCTAACACTTGGGTTCTAACCTGTTGCCT (site GCTAACACTAG)	0.0247
TCTAACACTTGGGTTCTAACCTGTTGCCT (site TCTAACACTAG)	0.206
TCTAAGGCTTGGGTTCTAACCTGTTGCCT (site TCAAAGGCTAG)	0.36
TCTAAGGCTTGGGTTCTAACCTGTTGCCT (site TCCAAGGCTAG)	0.108
TCTAAGGCTTGGGTTCTAACCTGTTGCCT (site TCGAAGGCTAG)	0.048
TCTAAGGCTTGGGTTCTAACCTGTTGCCT (site TCTAAGGCTAG)	0.043
TCTAAGTCTTGGGTTCTAACCTGTTGCCA (site TCTAAGTCTAG)	0.045
TCTAAGTCTTGGGTTCTAACCTGTTGCCA (site TCTAAGTCTCG)	0.144
TCTAAGTCTTGGGTTCTAACCTGTTGCCA (site TCTAAGTCTGG)	0.695
TCTAAGTCTTGGGTTCTAACCTGTTGCCA (site TCTAAGTCTTG)	0.0536
TCTACATCTTGGGTTCTAACCTGTTGCCT (site TCTACATCTAG)	0.0728
TCTACATCTTGGGTTCTAACCTGTTGCCT (site TCTACCTCTAG)	0.0374
TCTACATCTTGGGTTCTAACCTGTTGCCT (site TCTACGTCTAG)	0.0302

Sequence	recombinant barcode read abundance (log10)
TCTACATCTTGGGTTCTAACCTGTTGCCT (site TCTACTTCTAG)	0.0355
TCTAGAACTTGGGTTCTAACCTGTTGCCT (site TCTAGAACTAG)	0.0829
TCTAGAACTTGGGTTCTAACCTGTTGCCT (site TCTAGACCTAG)	0.0178
TCTAGAACTTGGGTTCTAACCTGTTGCCT (site TCTAGAGCTAG)	0.0689
TCTAGAACTTGGGTTCTAACCTGTTGCCT (site TCTAGATCTAG)	0.0276
TCTAGACCTTGGGTTCTAACCTGTTGCCA (site TCTAGACCTTG)	0.0618
TCTAGACCTTGGGTTCTAACCTGTTGCCA (site TCTAGTCCTAG)	0.564
TCTATGTCTTGGGTTCTAACCTGTTGCCT (site TCTATGACTAG)	0.182
TCTATGTCTTGGGTTCTAACCTGTTGCCT (site TCTATGTCTAG)	0.107
TCTCAGGCTTGGGTTCTAACCTGTTGCAG (site TATCAGACTCT)	0.0549
TCTCAGGCTTGGGTTCTAACCTGTTGCAG (site TCTCAGGCTCT)	0.445
TCTCCTCCTTGGGTTCTAACCTGTTGCAT (site GAGGTCACTTA)	0.115
TCTCCTCCTTGGGTTCTAACCTGTTGCAT (site TCTCCTCCTAT)	0.679
TCTCGGTCTTGGGTTCTAACCTGTTGCCT (site TCACGGTCTAG)	0.71
TCTCGGTCTTGGGTTCTAACCTGTTGCCT (site TCTCGGTCTAG)	0.277
TCTCGTTCTTGGGTTCTAACCTGTTGCTA (site AGAGTAACTGT)	0.127
TCTCGTTCTTGGGTTCTAACCTGTTGCTA (site TCTCGTTCTTA)	0.102
TCTGATTCTTGGGTTCTAACCTGTTGCCG (site TCTGATTCTCG)	0.197
TCTGATTCTTGGGTTCTAACCTGTTGCCG (site TCTTATTCTAG)	0.133
TCTGATTCTTGGGTTCTAACCTGTTGCGT (site TCTAATTCTAC)	0.352
TCTGATTCTTGGGTTCTAACCTGTTGCGT (site TCTCATTCTAC)	0.00698
TCTGATTCTTGGGTTCTAACCTGTTGCGT (site TCTGATTCTAC)	1.4

Sequence	recombinant barcode read abundance (log10)
TCTGATTCTTGGGTTCTAACCTGTTGCGT (site TCTTATTCTAC)	0.212
TCTGGCACTTGGGTTCTAACCTGTTGCCT (site TCCAGCACTAG)	0.205
TCTGGCACTTGGGTTCTAACCTGTTGCCT (site TCTGGCACTAG)	0.0487
TCTGGCCCTTGGGTTCTAACCTGTTGCCT (site CACCCTTCTGA)	0.124
TCTGGCCCTTGGGTTCTAACCTGTTGCCT (site TCTGGCCCTAG)	0.478
TCTGTATCTTGGGTTCTAACCTGTTGCCT (site ACTGTATCTAG)	0.28
TCTGTATCTTGGGTTCTAACCTGTTGCCT (site CCTGTATCTAG)	0.0921
TCTGTATCTTGGGTTCTAACCTGTTGCCT (site GCTGTATCTAG)	0.152
TCTGTATCTTGGGTTCTAACCTGTTGCCT (site TCTGTATCTAG)	0.614
TCTTAGACTTGGGTTCTAACCTGTTGCCG (site TCTTAGACTAG)	0.231
TCTTAGACTTGGGTTCTAACCTGTTGCCG (site TCTTAGACTCG)	0.232
TCTTAGACTTGGGTTCTAACCTGTTGCCT (site TCTTAGACTAG)	0.0224
TCTTAGACTTGGGTTCTAACCTGTTGCCT (site TCTTAGACTCG)	0.0132
TCTTAGACTTGGGTTCTAACCTGTTGCTT (site TCTTAGACTAA)	0.17
TCTTAGACTTGGGTTCTAACCTGTTGCTT (site TGTTGGACTAA)	0.0581
TCTTCCACTTGGGTTCTAACCTGTTGCCT (site ACTTCCACTAG)	0.0827
TCTTCCACTTGGGTTCTAACCTGTTGCCT (site CCTTCCACTAG)	0.0781
TCTTCCACTTGGGTTCTAACCTGTTGCCT (site GCTTCCACTAG)	0.0327
TCTTCCACTTGGGTTCTAACCTGTTGCCT (site TCTTCCACTAG)	0.385
TCTTCGACTTGGGTTCTAACCTGTTGCAG (site GGAAAAGCTAA)	0.0479
